# Assay results published in the supplement of paper PMC10307832.
# Tests used:
# Test in all cases: relative viability (nuclei count vs DMSO), 5 days (fraction); higher = more cells survive
# VX-702 + Luminespib = compound: NC(=O)c1ccc(N(C(N)=O)c2c(F)cccc2F)nc1-c1ccc(F)cc1F [VX-702] + CCNC(=O)c1noc(-c2cc(C(C)C)c(O)cc2O)c1-c1ccc(CN2CCOCC2)cc1 [Luminespib] (partner 0.01 µM)
# Outline: (§1)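 For relative viability, nuclei counts in treated wells were divided by those in vehicle wells. Lung cancer cell lines had been pin-tool dosed in 1536-well plates the day after seeding and cultured for 5 days, then fixed and stained in one step (final 0.05% Triton X-100, 1% formaldehyde, 1 ug/ml Hoechst) and imaged at 4×. Doses were one drug alone or a fixed anchor-drug dose plus five library-drug doses (not always all listed) in √10 steps, and values are duplicate-plate medians.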
# VX-702 + Alpelisib = compound: NC(=O)c1ccc(N(C(N)=O)c2c(F)cccc2F)nc1-c1ccc(F)cc1F [VX-702] + Cc1nc(NC(=O)N2CCC[C@H]2C(N)=O)sc1-c1ccnc(C(C)(C)C(F)(F)F)c1 [Alpelisib] (partner 2 µM)
# Outline: as §1
# Dabrafenib + Navitoclax = compound: CC(C)(C)c1nc(-c2cccc(NS(=O)(=O)c3c(F)cccc3F)c2F)c(-c2ccnc(N)n2)s1 [Dabrafenib] + CC1(C)CCC(c2ccc(Cl)cc2)=C(CN2CCN(c3ccc(C(=O)NS(=O)(=O)c4ccc(N[C@H](CCN5CCOCC5)CSc5ccccc5)c(S(=O)(=O)C(F)(F)F)c4)cc3)CC2)C1 [Navitoclax] (partner 0.5 µM)
# Outline: as §1
# Dabrafenib + Phenformin = compound: CC(C)(C)c1nc(-c2cccc(NS(=O)(=O)c3c(F)cccc3F)c2F)c(-c2ccnc(N)n2)s1 [Dabrafenib] + N=C(N)NC(=N)NCCc1ccccc1 [Phenformin] (partner 250 µM)
# Outline: as §1
Cell Line,relative viability (VX-702 + Luminespib; first compound 0.02 µM),relative viability (VX-702 + Luminespib; first compound 0.2 µM),relative viability (VX-702 + Luminespib; first compound 0.6325 µM),relative viability (VX-702 + Luminespib; first compound 2 µM),relative viability (VX-702 + Alpelisib; first compound 0.02 µM),relative viability (VX-702 + Alpelisib; first compound 0.2 µM),relative viability (VX-702 + Alpelisib; first compound 0.6325 µM),relative viability (VX-702 + Alpelisib; first compound 2 µM),relative viability (Dabrafenib + Navitoclax; first compound 0.003 µM),relative viability (Dabrafenib + Navitoclax; first compound 0.009487 µM),relative viability (Dabrafenib + Navitoclax; first compound 0.03 µM),relative viability (Dabrafenib + Navitoclax; first compound 0.09487 µM),relative viability (Dabrafenib + Navitoclax; first compound 0.3 µM),relative viability (Dabrafenib + Phenformin; first compound 0.003 µM),relative viability (Dabrafenib + Phenformin; first compound 0.009487 µM),relative viability (Dabrafenib + Phenformin; first compound 0.03 µM),relative viability (Dabrafenib + Phenformin; first compound 0.3 µM),relative viability (Dabrafenib + Phenformin; first compound 0.09487 µM)
HCC-827,0.449,0.638,0.504,0.273,0.982,1.04,0.884,0.684,0.997,1.02,0.97,1.01,1.01,0.31,0.447,0.354,0.385,
HOP-62,0.926,0.899,0.916,0.962,1.12,1.17,1.06,1.19,0.89,1.01,1.02,0.718,1.02,0.518,0.604,0.627,0.495,0.491
IA-LM,,,,,0.718,0.725,0.782,0.748,0.901,0.657,0.649,0.304,0.172,,,,,
LC-2-ad,0.979,1.01,1.01,1.36,0.943,0.885,0.868,1.02,0.558,0.425,0.381,0.417,0.438,,0.594,0.587,0.621,0.517
LCLC-97TM1,0.613,0.768,0.747,0.743,0.187,0.238,0.205,0.227,,0.368,0.536,,0.427,0.339,0.398,0.415,0.259,0.328
LCLC-103H,0.975,0.888,1,0.986,0.964,0.949,0.977,0.9,,,,,,0.304,0.35,0.328,0.331,0.345
LK-2,0.199,0.175,0.175,0.178,0.611,,0.635,1.18,1.09,0.985,0.662,0.938,0.936,0.38,0.573,,0.603,0.475
LOU-NH91,0.355,0.3,0.346,0.292,0.699,0.683,0.702,0.562,,0.848,0.741,0.719,0.664,0.417,0.808,0.645,0.92,0.707
LU99A,0.27,0.204,0.267,0.189,0.52,0.485,0.48,0.467,0.928,0.722,0.792,0.896,0.753,0.907,0.883,0.887,0.671,0.862
LXF-289,0.689,0.732,0.659,0.789,1.07,1.03,1.01,1.05,0.95,0.931,1.04,0.934,0.998,0.364,0.511,0.487,0.542,0.493
NCI-H23,0.196,0.189,0.274,0.215,0.659,0.65,0.683,0.998,,0.855,0.755,0.795,0.957,,0.816,0.762,0.687,0.51
NCI-H322M,0.856,0.917,0.759,0.88,0.873,0.695,0.779,0.894,,1.38,,1.12,1.17,,0.86,0.579,0.502,0.744
NCI-H358,0.245,0.416,0.583,0.4,0.804,0.778,0.777,0.973,,,,,,0.193,0.457,0.467,0.419,0.344
NCI-H441,0.368,0.326,0.271,0.411,0.847,0.537,0.727,0.759,,0.547,0.461,0.543,0.465,,1.04,1,0.563,0.548
NCI-H522,0.868,1.11,1.26,1.2,,,,,,,,,,,0.654,0.616,0.634,0.628
NCI-H650,0.661,,0.78,0.961,1.11,,1.15,1.34,,,,,,,0.475,0.393,0.35,0.262
NCI-H661,0.905,0.919,0.995,1.06,0.536,0.364,0.338,0.997,,,,,,0.256,0.277,0.268,0.306,0.323
NCI-H1299,,,,,1.14,1.1,1.21,1.15,0.997,1.02,1.06,1.01,1.01,,,,,
NCI-H1563,0.528,0.506,0.509,0.479,0.905,0.997,0.835,0.876,,,,,,0.622,0.667,0.653,0.748,0.752
NCI-H1623,0.469,0.496,0.477,0.465,,,,,,,,,,,0.611,0.572,0.682,0.602
NCI-H1650,0.19,0.193,0.216,0.226,,,,,1.25,1.44,1.21,1.35,1.42,0.347,0.424,0.457,0.631,0.495
NCI-H1703,,,,,0.304,0.376,0.215,0.334,1.33,1.41,1.6,0.951,1.09,,,,,
NCI-H2342,0.66,0.848,0.72,0.821,,,,,,,,,,0.444,0.599,0.546,0.612,0.653
